biological target: GST-Bcl-2 (Homo sapiens (Human), UniProt P10415); assay: Time Resolved-Fluorescence Resonance Energy Transfer (TR-FRET) Bcl-2 binding assay; conditions: GST-Bcl-2 1 nM, F-Bak peptide probe 100 nM, Tb-anti-GST antibody 1 nM; Ki by Wang's equation
In short: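 Competition TR-FRET: GST-Bcl-2 with fluorescent Bak peptide probe and Tb-anti-GST antibody, compounds serially diluted from 50 μM (2× start, 10% DMSO).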

Chain of GST-Bcl-2 (P10415 whole entry): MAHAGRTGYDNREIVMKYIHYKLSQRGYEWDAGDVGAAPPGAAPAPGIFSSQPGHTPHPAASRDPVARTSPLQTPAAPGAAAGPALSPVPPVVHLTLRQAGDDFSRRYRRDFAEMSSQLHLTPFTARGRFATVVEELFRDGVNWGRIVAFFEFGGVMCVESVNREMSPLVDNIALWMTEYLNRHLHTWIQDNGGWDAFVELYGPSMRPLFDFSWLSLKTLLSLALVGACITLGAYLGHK

Compound	Ki [nM]
CC1(C)CCC(CN2CCN(c3ccc(C(=O)NS(=O)(=O)c4ccc(NCC5CCOCC5)c([N+](=O)[O-])c4)c(Oc4cnc(N)c(Br)c4)c3)CC2)=C(c2ccc(Cl)cc2)C1 [Example 350, 2-[(6-amino-5-bromopyridin-3-yl)oxy]-4-(4-{[2-(4-chlorophenyl)-4,4-dimethylcyclohex-1-en-1-yl]methyl}piperazin-1-yl)-N-({3-nitro-4-[(tetrahydro-2H-pyran-4-ylmethyl)amino]phenyl}sulfonyl)benzamide]	< 0.01
CC1(C)CCC(CN2CCN(c3ccc(C(=O)NS(=O)(=O)c4ccc(NCC5CCOCC5)c([N+](=O)[O-])c4)c(Oc4cnc(N)c(C(N)=O)c4)c3)CC2)=C(c2ccc(Cl)cc2)C1 [Example 351, 2-amino-5-(5-(4-{[2-(4-chlorophenyl)-4,4-dimethylcyclohex-1-en-1-yl]methyl}piperazin-1-yl)-2-{[({3-nitro-4-[(tetrahydro-2H-pyran-4-ylmethyl)amino]phenyl}sulfonyl)amino]carbonyl}phenoxy)nicotinamide]	2.84
CC1(C)CCC(CN2CCN(c3ccc(C(=O)NS(=O)(=O)c4ccc(NCC5CCOCC5)c([N+](=O)[O-])c4)c(Oc4cnc(N)c(C#N)c4)c3)CC2)=C(c2ccc(Cl)cc2)C1 [Example 352, 2-[(6-amino-5-cyanopyridin-3-yl)oxy]-4-(4-{[2-(4-chlorophenyl)-4,4-dimethylcyclohex-1-en-1-yl]methyl}piperazin-1-yl)-N-({3-nitro-4-[(tetrahydro-2H-pyran-4-ylmethyl)amino]phenyl}sulfonyl)benzamide]	0.079
CC1(C)CCC(CN2CCN(c3ccc(C(=O)NS(=O)(=O)c4ccc(N[C@@H]5CCN(CC(F)F)C5)c([N+](=O)[O-])c4)c(Oc4cnc(N)c(Cl)c4)c3)CC2)=C(c2ccc(Cl)cc2)C1 [Example 353, 2-[(6-amino-5-chloropyridin-3-yl)oxy]-4-(4-{[2-(4-chlorophenyl)-4,4-dimethylcyclohex-1-en-1-yl]methyl}piperazin-1-yl)-N-[(4-{[(3R)-1-(2,2-difluoroethyl)pyrrolidin-3-yl]amino}-3-nitrophenyl)sulfonyl]benzamide]	0.016
CN1CCC(Nc2ccc(S(=O)(=O)NC(=O)c3ccc(N4CCN(CC5=C(c6ccc(Cl)cc6)CC(C)(C)CC5)CC4)cc3Oc3cnc(N)c(Cl)c3)cc2S(=O)(=O)C(F)(F)F)CC1 [Example 354, 2-[(6-amino-5-chloropyridin-3-yl)oxy]-4-(4-{[2-(4-chlorophenyl)-4,4-dimethylcyclohex-1-en-1-yl]methyl}piperazin-1-yl)-N-({4-[(1-methylpiperidin-4-yl)amino]-3-[(trifluoromethyl)sulfonyl]phenyl}sulfonyl)benzamide]	0.114
CC(=O)Nc1ccc(Oc2cc(N3CCN(CC4=C(c5ccc(Cl)cc5)CC(C)(C)CC4)CC3)ccc2C(=O)NS(=O)(=O)c2ccc(NCC3CCOCC3)c([N+](=O)[O-])c2)cn1 [Example 355, 2-{[6-(acetylamino)pyridin-3-yl]oxy}-4-(4-{[2-(4-chlorophenyl)-4,4-dimethylcyclohex-1-en-1-yl]methyl}piperazin-1-yl)-N-({3-nitro-4-[(tetrahydro-2H-pyran-4-ylmethyl)amino]phenyl}sulfonyl)benzamide]	9.57
CC1(C)CCC(CN2CCN(c3ccc(C(=O)NS(=O)(=O)c4ccc(NCC5CCOCC5)c([N+](=O)[O-])c4)c(Oc4ccc(NS(C)(=O)=O)nc4)c3)CC2)=C(c2ccc(Cl)cc2)C1 [Example 356, 4-(4-{[2-(4-chlorophenyl)-4,4-dimethylcyclohex-1-en-1-yl]methyl}piperazin-1-yl)-2-({6-[(methylsulfonyl)amino]pyridin-3-yl}oxy)-N-({3-nitro-4-[(tetrahydro-2H-pyran-4-ylmethyl)amino]phenyl}sulfonyl)benzamide]	2.82
CC1(C)CCC(CN2CCN(c3ccc(C(=O)NS(=O)(=O)c4ccc(N[C@@H]5CCN(C(CF)CF)C5)c([N+](=O)[O-])c4)c(Oc4cc5cc[nH]c5cc4F)c3)CC2)=C(c2ccc(Cl)cc2)C1 [Example 357, 4-(4-{[2-(4-chlorophenyl)-4,4-dimethylcyclohex-1-en-1-yl]methyl}piperazin-1-yl)-N-{[4-({(3R)-1-[2-fluoro-1-(fluoromethyl)ethyl]pyrrolidin-3-yl}amino)-3-nitrophenyl]sulfonyl}-2-[(6-fluoro-1H-indol-5-yl)oxy]benzamide]	0.177
CC1(C)CCC(CN2CCN(c3ccc(C(=O)NS(=O)(=O)c4ccc(NC5CCN(C6CC6)CC5)c([N+](=O)[O-])c4)c(Oc4cnc(N)c(Cl)c4)c3)CC2)=C(c2ccc(Cl)cc2)C1 [Example 358, 2-[(6-amino-5-chloropyridin-3-yl)oxy]-4-(4-{[2-(4-chlorophenyl)-4,4-dimethylcyclohex-1-en-1-yl]methyl}piperazin-1-yl)-N-({4-[(1-cyclopropylpiperidin-4-yl)amino]-3-nitrophenyl}sulfonyl)benzamide]	0.062
CN1CCN(Nc2ccc(S(=O)(=O)NC(=O)c3ccc(N4CCN(CC5=C(c6ccc(Cl)cc6)CC(C)(C)CC5)CC4)cc3Oc3cnc(N)c(Br)c3)cc2[N+](=O)[O-])CC1 [Example 359, 2-[(6-amino-5-bromopyridin-3-yl)oxy]-4-(4-{[2-(4-chlorophenyl)-4,4-dimethylcyclohex-1-en-1-yl]methyl}piperazin-1-yl)-N-({4-[(4-methylpiperazin-1-yl)amino]-3-nitrophenyl}sulfonyl)benzamide]	0.11
CC1(C)CCC(CN2CCN(c3ccc(C(=O)NS(=O)(=O)c4ccc(OCC5(F)CCOCC5)c([N+](=O)[O-])c4)c(Oc4cnc(N)c(Br)c4)c3)CC2)=C(c2ccc(Cl)cc2)C1 [Example 360, 2-[(6-amino-5-bromopyridin-3-yl)oxy]-4-(4-{[2-(4-chlorophenyl)-4,4-dimethylcyclohex-1-en-1-yl]methyl}piperazin-1-yl)-N-({4-[(4-fluorotetrahydro-2H-pyran-4-yl)methoxy]-3-nitrophenyl}sulfonyl)benzamide]	0.05
CC1(C)CCC(CN2CCN(c3ccc(C(=O)NS(=O)(=O)c4ccc(NCC5COCCO5)c([N+](=O)[O-])c4)c(Oc4cnc(N)c(Br)c4)c3)CC2)=C(c2ccc(Cl)cc2)C1 (centres unmarked) [Example 361, 2-[(6-amino-5-bromopyridin-3-yl)oxy]-4-(4-{[2-(4-chlorophenyl)-4,4-dimethylcyclohex-1-en-1-yl]methyl}piperazin-1-yl)-N-({4-[(1,4-dioxan-2-ylmethyl)amino]-3-nitrophenyl}sulfonyl)benzamide]	0.015
Cc1cc(Oc2cc(N3CCN(CC4=C(c5ccc(Cl)cc5)CC(C)(C)CC4)CC3)ccc2C(=O)NS(=O)(=O)c2ccc(NCC3CCOCC3)c([N+](=O)[O-])c2)cnc1N [Example 362, 2-[(6-amino-5-methylpyridin-3-yl)oxy]-4-(4-{[2-(4-chlorophenyl)-4,4-dimethylcyclohex-1-en-1-yl]methyl}piperazin-1-yl)-N-({3-nitro-4-[(tetrahydro-2H-pyran-4-ylmethyl)amino]phenyl}sulfonyl)benzamide]	0.033
CC1(C)CCC(CN2CCN(c3ccc(C(=O)NS(=O)(=O)c4ccc(NCC5(F)CCOCC5)c([N+](=O)[O-])c4)c(Oc4cnc(N)c(Cl)c4)c3)CC2)=C(c2ccc(Cl)cc2)C1 [Example 363, 2-[(6-amino-5-chloropyridin-3-yl)oxy]-4-(4-{[2-(4-chlorophenyl)-4,4-dimethylcyclohex-1-en-1-yl]methyl}piperazin-1-yl)-N-[(4-{[(4-fluorotetrahydro-2H-pyran-4-yl)methyl]amino}-3-nitrophenyl)sulfonyl]benzamide]	< 0.01

— US8952157B2, “Apoptosis-inducing agents for the treatment of cancer and immune and autoimmune diseases” (AbbVie Inc., priority 2008, dated 2015)
